Among the test systems are ACHN renal; BT-549 breast; HCC-2998 colon; HS 578T breast; MCF7 breast; RPMI-8226 leukemia; SN12C renal; SNB-75 CNS; SR leukemia; UACC-62 melanoma.
Holding throughout (assay): NCI anticancer screen, dose series, 48 h

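Compound exposure: 48 hours, 5 concentrations, 96-well plates. At the GI50, growth is halved. TGI marks complete inhibition of growth.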 Where only a bound is given, the exact number is not on record here.

Consider `ClC/C=C/CSc1ncnc2nc[nH]c12`, for which the GI50 with ACHN renal, in the experiment on BT-549 breast, in the experiment with HCC-2998 colon, in the experiment with HS 578T breast, in the experiment on MCF7 breast and with RPMI-8226 leukemia was over 100 µM throughout. Further, the GI50 in the experiment on SN12C renal is over 100 µM; in the experiment on SNB-75 CNS it was over 100 µM; in the experiment with SR leukemia, over 100 µM; with UACC-62 melanoma, over 100000 nM. For the same molecule, the TGI in the experiment with ACHN renal, in the experiment with BT-549 breast, with HCC-2998 colon, in the experiment on HS 578T breast, with MCF7 breast and in the experiment on RPMI-8226 leukemia was over 100 µM each time. In addition, the TGI in the experiment on SN12C renal, in the experiment with SNB-75 CNS, in the experiment with SR leukemia and with UACC-62 melanoma was over 100 µM each time.
For `CCOC(=O)Nc1cc2c(c(N)n1)N=C(c1ccc(Cl)cc1Cl)CN2`, the TGI is 20.8 µM in the experiment on ACHN renal; 33.1 µM in the experiment with BT-549 breast; 2.6 µM with HCC-2998 colon; 1.41 µM with HS 578T breast; 21.7 µM with MCF7 breast; over 100 µM in the experiment on RPMI-8226 leukemia. In addition, the TGI in the experiment with SN12C renal was 28.8 µM; in the experiment on SNB-75 CNS, 36.5 µM; with SR leukemia, over 100 µM; with UACC-62 melanoma, 11.6 µM.
As for `COc1ccc(/C(=C(\c2ccccc2)[N+](=O)[O-])c2ccc(OCCN3CCCC3)cc2)cc1`, the GI50 in the experiment with ACHN renal was 6.32 µM; in the experiment on BT-549 breast it was 4.51 µM; in the experiment on HCC-2998 colon, 4.16 µM; in the experiment on HS 578T breast, 2.32 µM; in the experiment with MCF7 breast it was 0.194 µM; with RPMI-8226 leukemia it was 2.53 µM. Moreover, the GI50 with SN12C renal is 7.79 µM; in the experiment with SNB-75 CNS it was 2.24 µM; in the experiment with SR leukemia, 1.49 µM; in the experiment with UACC-62 melanoma, 1930 nM. Moreover, the TGI with ACHN renal came out at 18.6 µM; with BT-549 breast, 17.6 µM; in the experiment on HCC-2998 colon it was 15.5 µM; in the experiment with HS 578T breast it was 10.9 µM; in the experiment with MCF7 breast it was 3.63 µM; in the experiment on RPMI-8226 leukemia, 10.6 µM. Further, the TGI with SN12C renal was 22.4 µM; in the experiment on SNB-75 CNS, 8.17 µM; in the experiment with SR leukemia, 5.05 µM; with UACC-62 melanoma, 4.24 µM.
As for `COc1cc(/C=N\Nc2ccccc2)ccc1OC(=O)c1ccccc1`, the GI50 in the experiment with ACHN renal is 0.675 µM; in the experiment on BT-549 breast it was 8.34 µM; in the experiment with HCC-2998 colon, 3.83 µM; in the experiment on HS 578T breast, 18 µM; with MCF7 breast it was 1.57 µM; with RPMI-8226 leukemia, 3.79 µM. Further, the GI50 is 11 µM with SN12C renal, 12.8 µM in the experiment with SNB-75 CNS, 16.5 µM in the experiment with SR leukemia and 311 nM in the experiment with UACC-62 melanoma. In addition, the TGI in the experiment with ACHN renal was over 100 µM; in the experiment with BT-549 breast, 62.3 µM; in the experiment on HCC-2998 colon, 17.1 µM; in the experiment with HS 578T breast it was over 100 µM; in the experiment on MCF7 breast it was 23.7 µM; in the experiment with RPMI-8226 leukemia it was over 55.9 µM. In addition, the TGI in the experiment with SN12C renal was over 100 µM; in the experiment on SNB-75 CNS, 61.9 µM; in the experiment on SR leukemia it was over 100 µM; with UACC-62 melanoma it was 4.47 µM.
For `CC1CCc2c(C(=O)Nc3ncc(Cc4cccc([N+](=O)[O-])c4)s3)csc2C1` (stereo not given), the GI50 in the experiment with ACHN renal is 0.937 µM; in the experiment on BT-549 breast it was 1.25 µM; with HCC-2998 colon, 1.51 µM; with HS 578T breast, 0.72 µM; in the experiment with MCF7 breast, 0.268 µM; in the experiment with RPMI-8226 leukemia, 1.14 µM. In addition, the GI50 was 1.49 µM in the experiment on SN12C renal, 0.369 µM with SNB-75 CNS, 0.176 µM in the experiment with SR leukemia and 373 nM in the experiment with UACC-62 melanoma. For the same molecule, the TGI is over 100 µM in the experiment on ACHN renal; over 100 µM in the experiment with BT-549 breast; over 100 µM in the experiment with HCC-2998 colon; over 26.2 µM in the experiment with HS 578T breast; over 100 µM in the experiment on MCF7 breast; over 100 µM in the experiment with RPMI-8226 leukemia. The TGI is over 100 µM with SN12C renal, 1.66 µM in the experiment with SNB-75 CNS, over 100 µM in the experiment on SR leukemia and over 100 µM in the experiment with UACC-62 melanoma.
Regarding `COc1cc(F)c(F)c(Nc2ccc(I)cc2F)c1NS(=O)(=O)C1(CC(O)CO)CC1` (stereo not given), the GI50 in the experiment with ACHN renal is 17 µM; in the experiment on BT-549 breast, 14.6 µM; in the experiment with HCC-2998 colon, 10.8 µM; with HS 578T breast it was 10.8 µM; in the experiment with MCF7 breast, 16.6 µM; with RPMI-8226 leukemia, 16 µM. The GI50 is 12.5 µM with SN12C renal, 6.29 µM in the experiment with SNB-75 CNS, 15.7 µM in the experiment on SR leukemia and 1960 nM with UACC-62 melanoma. The TGI was over 73.9 µM with ACHN renal; 35.2 µM in the experiment with BT-549 breast; 25.5 µM in the experiment with HCC-2998 colon; 55.4 µM in the experiment with HS 578T breast; 43.7 µM in the experiment on MCF7 breast; 54.6 µM with RPMI-8226 leukemia. For the same molecule, the TGI is 38.6 µM in the experiment on SN12C renal, 49.2 µM in the experiment with SNB-75 CNS, over 69.4 µM with SR leukemia and 9.81 µM with UACC-62 melanoma.
With `COC(=O)c1sc(-n2cnc3cc(OC)c(OC)cc32)cc1OCc1ccccc1C(F)(F)F`, the GI50 is over 25 µM in the experiment on ACHN renal; over 25 µM with BT-549 breast; over 25 µM in the experiment with HCC-2998 colon; 6.2 µM in the experiment on HS 578T breast; over 25 µM with MCF7 breast; over 25 µM in the experiment on RPMI-8226 leukemia. The GI50 in the experiment on SN12C renal is over 25 µM; in the experiment on SNB-75 CNS it was 9.07 µM; in the experiment with SR leukemia, over 25 µM; in the experiment on UACC-62 melanoma, over 25000 nM. For the same molecule, the TGI in the experiment with ACHN renal, in the experiment on BT-549 breast, in the experiment with HCC-2998 colon, in the experiment on HS 578T breast, in the experiment on MCF7 breast and in the experiment with RPMI-8226 leukemia was over 25 µM throughout. Also, the TGI is over 25 µM with SN12C renal, over 19.6 µM in the experiment with SNB-75 CNS, over 25 µM in the experiment on SR leukemia and over 25 µM with UACC-62 melanoma.
Regarding `OC[C@H]1C[C@](O)(c2ccccc2Cl)[C@@H](c2ccccc2Cl)O1`, the GI50 in the experiment with ACHN renal was 27.4 µM; in the experiment on BT-549 breast it was 16.9 µM; in the experiment with HCC-2998 colon, 29.5 µM; with HS 578T breast, 16.3 µM; in the experiment with MCF7 breast, 27 µM; in the experiment on RPMI-8226 leukemia, 21.7 µM. For the same molecule, the GI50 is 20.8 µM with SN12C renal, 20.9 µM with SNB-75 CNS, 16.9 µM in the experiment with SR leukemia and 16500 nM in the experiment on UACC-62 melanoma. Also, the TGI came to 91.2 µM in the experiment with ACHN renal; 37 µM in the experiment on BT-549 breast; 79.4 µM with HCC-2998 colon; 38.4 µM in the experiment with HS 578T breast; 62.6 µM in the experiment on MCF7 breast; 58.2 µM in the experiment with RPMI-8226 leukemia. Also, the TGI with SN12C renal was 41.2 µM; in the experiment on SNB-75 CNS it was 79.9 µM; with SR leukemia it was 41.3 µM; with UACC-62 melanoma it was 33.6 µM.

The values above are taken from PubChem BioAssay (NCI).
